Values quoted from earlier work in patent publication US20020004528A1, “Method for the treatment of insomnia” (priority 1998, published 2002).

Settings: one study mentioned in U.S. Pat. No. 5,510,381 (use of gabapentin to treat mania)

In the case of “1-(aminomethyl)-cyclohexane acetic acid [gabapentin]”, the “effect on delta-wave (deep) sleep” value is listed as “enhance delta-wave (deep) sleep”.
